This note sets out measurements from US11524960B2, “Heterobicyclic inhibitors of MAT2A and methods of use for treating cancer” (AGIOS PHARMACEUTICALS, INC., priority 2018, dated 2022).

Test [1] relates to HCT116 MTAP+/+. The test is described as follows: Inhibition of cellular proliferation (Cell Titer Glo), HCT116 MTAP+/+. The format is cell-based, human. To be noted: Homo sapiens, HCT-116, 96 h, 4 days, IC50 score, read-out: 4 Day Relative Growth Inhibition (MTAP +/+; Example 277). In a few lines: (§1)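 Isogenic HCT116 lines, MTAP+/+ and MTAP−/−, treated 24 h after plating with 10-point 3-fold compound dilutions including DMSO only, then grown 4 days at 37 °C/5% CO2. Cell Titer Glo ATP luminescence, blank-subtracted and normalised to 0.2% DMSO control, gave percent change in proliferation versus log concentration.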
For orientation: In ATP-based viability assays light output follows the ATP content of the culture.

In test [2] the test system is HCT116 MTAP−/−. Put plainly: Inhibition of cellular proliferation (Cell Titer Glo), HCT116 MTAP−/−. Type of test: cell-based, human. Conditions: Homo sapiens, HCT-116, 96 h, 4 days, IC50 score, read-out: 4 Day Relative Growth Inhibition (MTAP −/−; Example 277). In a few lines: as §1
Test [3] has as its system SAM in HCT116 human colon carcinoma cell line engineered to delete the MTAP gene (MTAP −/−). Put plainly: Cellular assay of target engagement (SAM) by LC-MS/MS. The format is cell-based. Conditions: Homo sapiens, HCT-116, 72 h, IC50 score, read-out: Cell 72 h SAM Inhibition (MTAP −/−; Example 276). In a few lines:
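MTAP-deleted HCT116 cells were dosed 24 h after plating with a 10-point 3-fold compound series in DMSO, then incubated 72 h at 37 °C/5% CO2. Cells were extracted in cold 80% methanol with acetic acid and d3-SAM internal standard. SAM was quantified by LC-MS/MS MRM (m/z 399.2→250.1).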

The target of test [4] is T1, MAT2A homodimer (Homo sapiens, UniProt P31153).
T1 construct: inferred from Ni sepharose purification and imidazole elution; made in house; host or cells: Sf9 insect cells, recombinant baculovirus (Bac to Bac, pFASTBAC1)
T1 sequence (P31153 whole entry): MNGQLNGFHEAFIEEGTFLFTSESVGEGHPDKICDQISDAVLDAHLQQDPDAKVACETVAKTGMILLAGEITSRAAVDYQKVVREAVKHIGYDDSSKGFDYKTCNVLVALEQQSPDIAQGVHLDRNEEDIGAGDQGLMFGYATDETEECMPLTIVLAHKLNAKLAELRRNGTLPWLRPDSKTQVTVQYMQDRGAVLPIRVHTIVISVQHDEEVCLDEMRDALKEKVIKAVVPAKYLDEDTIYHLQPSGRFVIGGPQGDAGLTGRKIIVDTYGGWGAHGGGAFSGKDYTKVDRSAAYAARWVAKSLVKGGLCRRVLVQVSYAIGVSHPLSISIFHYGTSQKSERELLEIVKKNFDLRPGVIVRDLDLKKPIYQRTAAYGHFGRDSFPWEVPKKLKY
The test is described as follows: Biochemical assay: inhibition of MAT2A (phosphate release, PiColorLock Gold). To be noted: MAT2A IC50 score; read-out: Enzyme Inhibition (Example 275). In a few lines:
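Baculovirus/Sf9-expressed, Ni-purified MAT2A at 4 µg/mL was preincubated with compound for 60 min at 25 °C in 50 mM Tris pH 8.0, 50 mM KCl, 15 mM MgCl2, 0.3 mM EDTA, 0.005% BSA. Substrate mix (500 μM ATP, 400 μM L-methionine) was added and the reaction ran 60 min at 25 °C. Phosphate released stoichiometrically with SAM was measured colorimetrically against a phosphate standard curve.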

Where only a bound is given, the exact number is not on record here.

For `Cn1cnc2ccc(-n3cc4cnc(NCC(F)(F)F)nc4c(-c4ccc(Cl)cc4)c3=O)cc21` [Example 135, 8-(4-chlorophenyl)-6-(1-methyl-1H-benzo[d]imidazol-6-yl)-2-(2,2,2-trifluoroethylamino)pyrido[4,3-d]pyrimidin-7(6H)-one], the IC50 in test [1] is 100 to 10000 nM; in test [2] it was under 100 nM; in test [3], under 100 nM; in test [4], under 100 nM.
Regarding `Cn1cc2cc(-n3cc4ccc(OCC(F)(F)F)nc4c(-c4ccc(Cl)cc4)c3=O)ccc2n1` [Example 254, 8-(4-chlorophenyl)-6-(2-methyl-2H-indazol-5-yl)-2-(2,2,2-trifluoroethoxy)-1,6-naphthyridin-7(6H)-one], the IC50 is over 10000 nM in test [1], under 100 nM in test [2], under 100 nM in test [3] and under 100 nM in test [4].
As to `Cn1cnc2ccc(-n3cc4ccc(OCC(F)(F)F)nc4c(-c4ccc(OC(F)F)nc4)c3=O)cc21` [Example 127-A], the IC50 in test [1] was 100 to 10000 nM; in test [2], under 100 nM; in test [3], 100 to 1000 nM; in test [4] it was under 100 nM.
As to `Cn1cc2cc(-n3cc4ccc(OCC(F)(F)F)nc4c(-c4ccc(C(F)(F)F)nc4)c3=O)ccc2n1` [Example 124-A], the IC50 in test [1] is 100 to 10000 nM; in test [2], 100 to 10000 nM; in test [3], under 100 nM; in test [4], under 100 nM.
Turning to `Cn1cc2cc(-n3cc4ccc(OCC(F)(F)F)nc4c(-c4ccc(C(F)F)nc4)c3=O)ccc2n1` [Example 118-A], the IC50 in test [1] was 100 to 10000 nM; in test [2] it was under 100 nM; in test [3], under 100 nM; in test [4] it was under 100 nM.
Take `COc1ccc(-n2cc3cnc(NCC(F)(F)F)nc3c(-c3ccc(-c4cc[nH]n4)cc3)c2=O)cc1` [Example 202, 8-(4-(H-pyrazol-3-yl)phenyl)-6-(4-methoxyphenyl)-2-((2,2,2-trifluoroethyl)amino)pyrido[4,3-d]pyrimidin-7(6H)-one]: the IC50 in test [1] was over 10000 nM; in test [2], 100 to 10000 nM; in test [3], 100 to 1000 nM; in test [4], under 100 nM.
`Cn1cc2cc(-n3cc4cnc(NCC(F)(F)F)nc4c(-c4ccc(Br)cc4)c3=O)ccc2n1` [Example 103-A]: the IC50 in test [1] was over 10000 nM; in test [2], under 100 nM; in test [3] it was under 100 nM; in test [4], under 100 nM.
Regarding `CCOc1nc2c(-c3ccc(Cl)cc3)c(=O)n(-c3ccc4nn(C)cc4c3)cc2cc1C` [Example 134-A], the IC50 is over 10000 nM in test [1], under 100 nM in test [2], under 100 nM in test [3] and under 100 nM in test [4].
Regarding `CCOc1ccc2cn(-c3ccc4nn(C)cc4c3)c(=O)c(-c3ccc(C)nc3)c2n1` [Example 219, 2-ethoxy-6-(2-methyl-2H-indazol-5-yl)-8-(6-methylpyridin-3-yl)-1,6-naphthyridin-7(6H)-one], the IC50 in test [1] is 100 to 10000 nM; in test [2], under 100 nM; in test [3] it was under 100 nM; in test [4], under 100 nM.
`O=c1c(-c2ccc(OC(F)F)cc2)c2nc(NCC(F)(F)F)ncc2cn1-c1ccc2ncccc2c1` [Example 159, 8-(4-(difluoromethoxy)phenyl)-6-(quinolin-6-yl)-2-((2,2,2-trifluoroethyl)amino)pyrido[4,3-d]pyrimidin-7(6H)-one]: the IC50 is 100 to 10000 nM in test [1], under 100 nM in test [2], under 100 nM in test [3] and under 100 nM in test [4].
Turning to `CN(C)CCn1cc2cc(-n3cc4cnc(NCC(F)(F)F)nc4c(-c4ccc(Cl)cc4)c3=O)ccc2n1` [Example 137, 8-(4-chlorophenyl)-6-(2-(2-(dimethylamino)ethyl)-2H-indazol-5-yl)-2-((2,2,2-trifluoroethyl)amino)pyrido[4,3-d]pyrimidin-7(6H)-one], the IC50 in test [1] was over 10000 nM; in test [2], 100 to 10000 nM; in test [3] it was 100 to 1000 nM; in test [4] it was under 100 nM.
